Measured values as given in patent US20180200233A1, “COMPOSITIONS FOR PREVENTING CANCERS ASSOCIATED WITH HUMAN PAPILLOMA VIRUSES” (Loma Linda University, priority 2015, published 2018).

Assays:
SCC 84 (#84) cells = assay: MTT cell viability, HPV- HNSCC cell line #84 with doxorubicin; format: cell-based; conditions: 2 μM doxorubicin; small molecules 0-12.5 μM
Experimental: FIGS. 8A-B includes graphs showing myricetin and spinacine (5) re-sensitized HPV^+, but not HPV^−, HNSCC cell lines to treatment with doxorubicin. One HPV^− (FIG. 8A; #84) and one HPV^+ (FIG. 8B; #90) head and neck cancer cell line (2×10^4 cells per well) were seeded into 96-well plates and allowed to incubate overnight, then cells were pre-treated with myricetin or spinacine (0-12.5 μM) for 4 h. 2 μM of doxorubicin was added and cells were allowed to incubate overnight. Cell viability was measured by MTT assay, and the viability of cells untreated with small molecules was set at 100%. Experiments were performed in triplicate, and error bars indicate the standard deviation.
The results described above indicate that myricetin and spinacine sensitize HPV^+ HNSCC cells to TRAIL-induced apoptosis. To determine whether this sensitization also occurs in the context of chemotherapeutic agents, several HNSCC cell lines were tested for their responses to combination treatments.
The extracellular domain of human TRAIL was cloned into a pTriEx expression plasmid containing N-terminal Hisx6 tag. His-TRAIL was expressed in the E. coli BL-21 pLys strain and purified as previously described. […] All experiments were repeated at least three times (three biological replicates, carried out on different days), with each experimental group measured in triplicate within each of these individual experiments. […]

[1] = tested on: caspase 3/7 activity in SiHa cells; assay: Caspase 3/7 activity assay in SiHa cells; format: cell-based, human; conditions: 100 μM myricetin or 50 μM spinacine 4 h, TRAIL 100 ng/ml + cycloheximide, 0-6 h
Experimental: FIGS. 4A-C are graphs showing that myricetin and spinacine (5) increased caspase 3/7 activity in SiHa cells following treatment with TRAIL and chemotherapy drugs. SiHa cells (2×10^4 cells per well) were seeded into a 96-well plate and allowed to incubate overnight, then pre-treated with 100 μM of myricetin or 50 μM of spinacine for 4 h. (FIG. 4A) TRAIL (100 ng/ml), along with cycloheximide (5 μg/ml), (FIG. 4B) cisplatin (50 μM), or (FIG. 4C) doxorubicin (2 μM) were added respectively. Caspase 3/7 activity was measured after 0, 1.5, 3, and 6 hours using the […] assay. Activity at 0 h of treatment was set at 100% for each group. […]
Activation of caspase 3/7 is an essential marker for both extrinsic and intrinsic apoptosis, and can be used to determine whether cell death occurs through the apoptotic pathway. […] To test this, caspase 3/7 activity was measured in SiHa cells following TRAIL, cisplatin and doxorubicin treatment in the presence or absence of myricetin or spinacine.
Cells were plated into 96-well plates at a density of 2×10^4 cells per well and incubated overnight. […] Caspase 3/7 activity was measured using the […] for caspase 3/7 activity (Promega, Fitchburg, Wis., USA) following the manufacturer's instructions. […] The resulting difference was expressed as a percentage of the caspase activity of the untreated cells.

For O=c1c(O)c(-c2cc(O)c(O)c(O)c2)oc2cc(O)cc(O)c12 [Myricetin, reference compound], the “response of HPV- HNSCC cell line #84 to doxorubicin (in words)” value (SCC 84 (#84) cells) was “resistant” and the “caspase 3/7 activity when combined with TRAIL (in words)” value [1] was “increased significantly”.
For O=C(O)C1Cc2[nH]cnc2CN1 (stereo not shown) [Compound 5, 4,5,6,7-Tetrahydro-1H-imidazo(4,5-c)pyridine-6-carboxylic acid], the “response of HPV- HNSCC cell line #84 to doxorubicin (in words)” value (SCC 84 (#84) cells) was “resistant” and the “caspase 3/7 activity when combined with TRAIL (in words)” value [1] was “increased significantly”.
